Measurements taken from patent publication US11981658B2, “Substituted aminopyridine compounds as EGFR inhibitors” (YUHAN CORPORATION, priority 2021, dated 2024).
Like-named read-outs stand apart in the source and are kept apart here.

Assays:
EGFR Del19/C797S = EGFR Del19/C797S (Homo sapiens, UniProt P00533, C797S/DEL746-750); assay: Biochemical EGFR kinase inhibition assay (Lance Ultra TR-FRET), double mutant del19/C797S
How it was run: (§1)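 Enzyme reactions lasted 1 hour at room temperature with test compounds between 0.003 and 10 μM, followed by 10 mM EDTA quench.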

EGFR L858R/C797S = EGFR L858R/C797S (Homo sapiens, UniProt P00533, C797S/L858R); assay: Biochemical EGFR kinase inhibition assay (Lance Ultra TR-FRET), double mutant L858R/C797S
How it was run: as §1

EGFR L858R/T790M/C797S = EGFR L858R/T790M/C797S (Homo sapiens, UniProt P00533, C797S/L858R/T790M); assay: Biochemical EGFR kinase inhibition assay (Lance Ultra TR-FRET), triple mutant L858R/T790M/C797S
How it was run: as §1

EGFR Del19/T790M/C797S = EGFR Del19/T790M/C797S (Homo sapiens, UniProt P00533, C797S/DEL746-750/T790M); assay: Biochemical EGFR kinase inhibition assay (Lance Ultra TR-FRET), triple mutant del19/T790M/C797S
How it was run: as §1

EGFR wildtype (WT) = EGFR wildtype (WT) (Homo sapiens, UniProt P00533); assay: Biochemical EGFR kinase inhibition assay (Lance Ultra TR-FRET), wildtype
How it was run: as §1

[1] = ATP at Km, read-out: IC50 Del19/C797S (nM), Km ATP
[2] = IC50 Del19/C797S (nM), 100 μM ATP
[3] = ATP at Km, read-out: IC50 L858R/C797S (nM), Km ATP
[4] = IC50 L858R/C797S (nM), 100 μM ATP
[5] = ATP at Km, read-out: IC50 L858R/T790M/C797S (nM), Km ATP
[6] = IC50 L858R/T790M/C797S (nM), 100 μM ATP
[7] = ATP at Km, read-out: IC50 Del19/T790M/C797S (nM), Km ATP
[8] = IC50 Del19/T790M/C797S (nM), 100 μM ATP
[9] = ATP at Km, read-out: IC50 WT (nM), Km ATP

Sequence of EGFR Del19/T790M/C797S (P00533 with tags, fused parts or gaps DEL746-750/T790M/C797S): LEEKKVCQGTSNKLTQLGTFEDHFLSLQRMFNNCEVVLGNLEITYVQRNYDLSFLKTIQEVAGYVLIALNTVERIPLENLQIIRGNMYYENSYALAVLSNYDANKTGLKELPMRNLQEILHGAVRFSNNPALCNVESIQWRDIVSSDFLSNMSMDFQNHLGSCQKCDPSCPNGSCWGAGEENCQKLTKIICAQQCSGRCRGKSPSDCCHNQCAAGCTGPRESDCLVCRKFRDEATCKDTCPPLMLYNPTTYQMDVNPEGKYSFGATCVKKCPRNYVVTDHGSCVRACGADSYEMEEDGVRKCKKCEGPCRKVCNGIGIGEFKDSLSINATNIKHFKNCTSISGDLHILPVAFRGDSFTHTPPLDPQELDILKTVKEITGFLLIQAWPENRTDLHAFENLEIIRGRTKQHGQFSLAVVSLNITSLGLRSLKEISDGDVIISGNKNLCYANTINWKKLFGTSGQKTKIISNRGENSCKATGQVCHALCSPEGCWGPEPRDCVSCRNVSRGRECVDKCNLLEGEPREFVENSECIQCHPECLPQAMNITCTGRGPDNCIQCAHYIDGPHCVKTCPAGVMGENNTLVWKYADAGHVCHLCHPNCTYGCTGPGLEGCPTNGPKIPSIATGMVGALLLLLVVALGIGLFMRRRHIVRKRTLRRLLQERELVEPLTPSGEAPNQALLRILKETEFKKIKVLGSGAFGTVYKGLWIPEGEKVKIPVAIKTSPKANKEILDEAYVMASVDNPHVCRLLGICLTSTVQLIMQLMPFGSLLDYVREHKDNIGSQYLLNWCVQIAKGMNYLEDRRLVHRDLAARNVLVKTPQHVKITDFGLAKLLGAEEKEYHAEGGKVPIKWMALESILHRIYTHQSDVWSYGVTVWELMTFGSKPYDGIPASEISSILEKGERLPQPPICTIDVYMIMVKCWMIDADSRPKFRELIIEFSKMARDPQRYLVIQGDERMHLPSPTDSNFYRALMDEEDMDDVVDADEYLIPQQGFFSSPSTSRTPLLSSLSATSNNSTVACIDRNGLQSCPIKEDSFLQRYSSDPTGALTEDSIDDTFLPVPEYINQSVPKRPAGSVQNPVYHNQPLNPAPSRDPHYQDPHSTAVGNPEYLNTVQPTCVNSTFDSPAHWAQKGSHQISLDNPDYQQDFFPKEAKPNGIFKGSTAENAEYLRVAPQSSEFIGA
Sequence of EGFR L858R/T790M/C797S (P00533 25-1210 T790M/C797S/L858R): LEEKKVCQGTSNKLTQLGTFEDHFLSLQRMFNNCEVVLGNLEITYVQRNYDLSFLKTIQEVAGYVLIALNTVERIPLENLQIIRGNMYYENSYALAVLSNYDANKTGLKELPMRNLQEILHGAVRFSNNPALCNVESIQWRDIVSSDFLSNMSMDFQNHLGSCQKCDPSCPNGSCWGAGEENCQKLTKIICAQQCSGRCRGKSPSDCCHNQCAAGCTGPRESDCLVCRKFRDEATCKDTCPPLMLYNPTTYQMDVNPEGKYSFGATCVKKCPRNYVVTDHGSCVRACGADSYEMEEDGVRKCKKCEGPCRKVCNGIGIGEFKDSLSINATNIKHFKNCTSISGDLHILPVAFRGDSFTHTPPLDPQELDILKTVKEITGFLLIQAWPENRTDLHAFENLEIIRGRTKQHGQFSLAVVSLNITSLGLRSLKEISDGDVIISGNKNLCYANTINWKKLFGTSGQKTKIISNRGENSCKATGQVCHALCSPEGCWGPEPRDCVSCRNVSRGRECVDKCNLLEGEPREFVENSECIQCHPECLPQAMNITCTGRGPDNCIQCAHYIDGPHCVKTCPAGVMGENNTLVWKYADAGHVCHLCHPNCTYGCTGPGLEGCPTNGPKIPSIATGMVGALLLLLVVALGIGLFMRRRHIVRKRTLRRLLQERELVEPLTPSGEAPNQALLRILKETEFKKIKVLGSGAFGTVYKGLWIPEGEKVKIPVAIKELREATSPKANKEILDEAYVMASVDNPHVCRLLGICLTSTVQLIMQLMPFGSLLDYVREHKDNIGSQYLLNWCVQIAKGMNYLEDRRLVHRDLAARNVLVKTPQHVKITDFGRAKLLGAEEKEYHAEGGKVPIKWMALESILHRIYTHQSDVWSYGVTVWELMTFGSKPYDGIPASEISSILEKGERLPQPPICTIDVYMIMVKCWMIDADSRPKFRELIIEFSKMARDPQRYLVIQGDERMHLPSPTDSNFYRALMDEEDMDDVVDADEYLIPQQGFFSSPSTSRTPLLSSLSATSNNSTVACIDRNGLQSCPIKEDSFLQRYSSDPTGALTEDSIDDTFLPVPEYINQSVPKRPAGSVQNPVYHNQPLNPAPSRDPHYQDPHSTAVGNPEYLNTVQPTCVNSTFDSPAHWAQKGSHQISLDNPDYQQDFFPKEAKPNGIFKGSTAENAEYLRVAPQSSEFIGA
Sequence of EGFR L858R/C797S (P00533 25-1210 C797S/L858R): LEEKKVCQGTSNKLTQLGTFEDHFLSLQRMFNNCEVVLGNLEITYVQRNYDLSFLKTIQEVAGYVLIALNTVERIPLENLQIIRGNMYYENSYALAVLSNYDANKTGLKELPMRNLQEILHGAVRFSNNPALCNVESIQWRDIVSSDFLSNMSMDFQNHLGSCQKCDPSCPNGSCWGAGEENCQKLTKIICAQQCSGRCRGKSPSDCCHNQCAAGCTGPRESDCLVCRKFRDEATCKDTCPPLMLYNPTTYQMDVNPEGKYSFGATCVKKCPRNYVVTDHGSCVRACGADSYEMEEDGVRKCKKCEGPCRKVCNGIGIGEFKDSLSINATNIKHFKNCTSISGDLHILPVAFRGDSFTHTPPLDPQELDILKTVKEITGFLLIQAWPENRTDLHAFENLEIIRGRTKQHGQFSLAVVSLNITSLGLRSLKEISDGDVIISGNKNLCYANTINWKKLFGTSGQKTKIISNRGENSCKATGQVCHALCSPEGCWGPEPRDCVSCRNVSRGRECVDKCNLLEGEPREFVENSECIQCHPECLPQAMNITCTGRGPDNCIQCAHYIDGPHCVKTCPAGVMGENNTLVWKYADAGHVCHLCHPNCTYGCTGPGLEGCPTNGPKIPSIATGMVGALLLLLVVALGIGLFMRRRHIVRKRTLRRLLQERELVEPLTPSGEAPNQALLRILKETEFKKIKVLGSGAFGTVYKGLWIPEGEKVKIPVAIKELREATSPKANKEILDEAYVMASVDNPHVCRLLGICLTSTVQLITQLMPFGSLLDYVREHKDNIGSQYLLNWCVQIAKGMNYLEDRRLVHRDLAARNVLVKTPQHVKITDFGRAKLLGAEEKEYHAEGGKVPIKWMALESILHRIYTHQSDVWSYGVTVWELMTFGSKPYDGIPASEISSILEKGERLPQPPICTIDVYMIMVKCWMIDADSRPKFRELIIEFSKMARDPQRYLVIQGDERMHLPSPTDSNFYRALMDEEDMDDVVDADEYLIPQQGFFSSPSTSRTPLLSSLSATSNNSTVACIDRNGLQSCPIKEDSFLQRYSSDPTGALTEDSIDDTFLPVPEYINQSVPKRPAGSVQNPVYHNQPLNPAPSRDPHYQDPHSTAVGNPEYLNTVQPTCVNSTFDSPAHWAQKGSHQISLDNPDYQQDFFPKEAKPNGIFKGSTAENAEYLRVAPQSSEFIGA
Sequence of EGFR wildtype (WT) (P00533 25-1210): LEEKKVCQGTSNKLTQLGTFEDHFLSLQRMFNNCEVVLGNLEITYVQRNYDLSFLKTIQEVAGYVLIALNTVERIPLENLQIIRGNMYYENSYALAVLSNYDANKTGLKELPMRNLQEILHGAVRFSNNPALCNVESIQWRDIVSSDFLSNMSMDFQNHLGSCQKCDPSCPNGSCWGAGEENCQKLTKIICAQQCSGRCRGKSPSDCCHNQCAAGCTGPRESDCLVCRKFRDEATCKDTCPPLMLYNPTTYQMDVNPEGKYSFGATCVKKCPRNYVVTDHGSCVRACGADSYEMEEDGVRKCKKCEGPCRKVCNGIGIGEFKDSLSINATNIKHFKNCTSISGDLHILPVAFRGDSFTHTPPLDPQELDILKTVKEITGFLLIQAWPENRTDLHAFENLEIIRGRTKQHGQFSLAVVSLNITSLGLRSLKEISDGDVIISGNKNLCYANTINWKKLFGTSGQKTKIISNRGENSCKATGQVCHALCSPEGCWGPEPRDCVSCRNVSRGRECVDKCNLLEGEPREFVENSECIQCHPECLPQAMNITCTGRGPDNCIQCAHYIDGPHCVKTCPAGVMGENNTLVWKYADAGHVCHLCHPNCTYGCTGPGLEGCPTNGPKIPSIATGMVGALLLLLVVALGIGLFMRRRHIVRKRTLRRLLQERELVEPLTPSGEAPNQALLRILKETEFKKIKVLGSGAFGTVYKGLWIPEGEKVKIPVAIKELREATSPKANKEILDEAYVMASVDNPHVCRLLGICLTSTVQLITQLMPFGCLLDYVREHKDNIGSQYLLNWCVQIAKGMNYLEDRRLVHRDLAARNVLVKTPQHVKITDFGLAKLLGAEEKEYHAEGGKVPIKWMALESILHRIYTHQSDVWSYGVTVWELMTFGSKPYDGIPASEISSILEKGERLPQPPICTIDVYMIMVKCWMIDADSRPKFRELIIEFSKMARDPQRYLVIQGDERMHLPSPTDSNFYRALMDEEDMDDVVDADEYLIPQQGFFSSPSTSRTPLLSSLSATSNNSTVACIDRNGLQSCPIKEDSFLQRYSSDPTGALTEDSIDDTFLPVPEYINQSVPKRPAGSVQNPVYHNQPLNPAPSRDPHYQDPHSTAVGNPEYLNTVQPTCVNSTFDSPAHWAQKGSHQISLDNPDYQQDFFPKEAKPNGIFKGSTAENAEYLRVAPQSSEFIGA

Row | Structure (SMILES) | IC50 (EGFR Del19/C797S; [1]) | IC50 (EGFR Del19/C797S; [2]) | IC50 (EGFR L858R/C797S; [3]) | IC50 (EGFR L858R/C797S; [4]) | IC50 (EGFR L858R/T790M/C797S; [5]) | IC50 (EGFR L858R/T790M/C797S; [6]) | IC50 (EGFR Del19/T790M/C797S; [7]) | IC50 (EGFR Del19/T790M/C797S; [8]) | IC50 (EGFR wildtype (WT); [9]) | IC50 (EGFR wildtype (WT); IC50 WT (nM), 100 μM ATP)
1 | CC1(CO)CCN(c2cc(Nc3ccnc(-c4cnn(S(=O)(=O)C5CC5)c4)n3)ncc2C#CC2CC(C(C)(C)O)C2)CC1 (stereo not shown) [Example 266, 2-(3-((6-((2-(1-(Cyclopropylsulfonyl)-1H-pyrazol-4-yl)pyrimidin-4-yl)amino)-4-(4-(hydroxymethyl)-4-methylpiperidin-1-yl)pyridin-3-yl)ethynyl)cyclobutyl)propan-2-ol] | 1.1 nM | 2.1 nM | 0.9 nM | 5.4 nM | 0.4 nM | 0.4 nM | 1 nM | 0.8 nM | 7.2 nM | 1230 nM
2 | CC1(CO)CCN(c2cc(Nc3ccnc(-c4cnn(CC(F)F)c4)n3)ncc2C#Cc2cnn(C(F)(F)F)c2)CC1 [Example 267, (1-(2-((2-(1-(2,2-Difluoroethyl)-1H-pyrazol-4-yl)pyrimidin-4-yl)amino)-5-((1-(trifluoromethyl)-1H-pyrazol-4-yl)ethynyl)pyridin-4-yl)-4-methylpiperidin-4-yl)methanol] | 24.2 nM | 12.4 nM | 4.1 nM | 130 nM | 0.8 nM | 3.1 nM | 1.6 nM | 1.9 nM | 252 nM | > 10000 nM
3 | CC1(CO)CCN(c2cc(Nc3ccnc(-c4cnn(S(C)(=O)=O)c4)n3)ncc2C#Cc2cnn(C(F)(F)F)c2)CC1 [Example 268, (4-Methyl-1-(2-((2-(1-(methylsulfonyl)-1H-pyrazol-4-yl)pyrimidin-4-yl)amino)-5-((1-(trifluoromethyl)-1H-pyrazol-4-yl)ethynyl)pyridin-4-yl)piperidin-4-yl)methanol] | 26.6 nM | 59.6 nM | 41.8 nM | 116 nM | 1 nM | 2.9 nM | 2.4 nM | 6.2 nM | 105 nM | > 10000 nM
4 | CC1(CO)CCN(c2cc(Nc3ccnc(-c4ccc(F)nc4)n3)ncc2C#Cc2cnn(C(F)(F)F)c2)CC1 [Example 269, (1-(2-((2-(6-Fluoropyridin-3-yl)pyrimidin-4-yl)amino)-5-((1-(trifluoromethyl)-1H-pyrazol-4-yl)ethynyl)pyridin-4-yl)-4-methylpiperidin-4-yl)methanol] | – | 1950 nM | – | 1350 nM | – | 160 nM | – | 129 nM | > 10000 nM | > 10000 nM
5 | Cn1cc(C#Cc2cnc(Nc3ccnc(Nc4ccccc4S(C)(=O)=O)n3)cc2N2CCC(C)(CO)CC2)cn1 [Example 270, (4-Methyl-1-(5-((1-methyl-1H-pyrazol-4-yl)ethynyl)-2-((2-((2-(methylsulfonyl)phenyl)amino)pyrimidin-4-yl)amino)pyridin-4-yl)piperidin-4-yl)methanol] | 27.9 nM | 28 nM | 72.8 nM | 2800 nM | 1.6 nM | 4.8 nM | 0.7 nM | 1.2 nM | 111 nM | > 10000 nM
6 | CC1(CO)CCN(c2cc(Nc3ccnc(Nc4ccccc4S(C)(=O)=O)n3)ncc2C#Cc2cnn(C(F)F)c2)CC1 [Example 271, (1-(5-((1-(Difluoromethyl)-1H-pyrazol-4-yl)ethynyl)-2-((2-((2-(methylsulfonyl)phenyl)amino)pyrimidin-4-yl)amino)pyridin-4-yl)-4-methylpiperidin-4-yl)methanol] | 68.5 nM | 111 nM | 439 nM | > 10000 nM | 6.7 nM | 9.2 nM | 1.8 nM | 3 nM | 411 nM | > 10000 nM
7 | Cc1nn(S(=O)(=O)N(C)C)cc1-c1nccc(Nc2cc(N3CCC(C)(CO)CC3)c(C#Cc3cnn(C(F)(F)F)c3)cn2)n1 [Example 272, 4-(4-((4-(4-(Hydroxymethyl)-4-methylpiperidin-1-yl)-5-((1-(trifluoromethyl)-1H-pyrazol-4-yl)ethynyl)pyridin-2-yl)amino)pyrimidin-2-yl)-N, N,3-trimethyl-1H-pyrazole-1-sulfonamide] | 51.2 nM | 81.9 nM | 18.9 nM | 2120 nM | 2.2 nM | 3.1 nM | 4 nM | 7.1 nM | 108 nM | > 10000 nM
8 | CN(C)S(=O)(=O)n1cc(-c2nccc(Nc3cc(N4CCC(C)(CO)CC4)c(C#Cc4cnn(C(F)(F)F)c4)cn3)n2)cn1 [Example 273, 4-(4-((4-(4-(Hydroxymethyl)-4-methylpiperidin-1-yl)-5-((1-(trifluoromethyl)-1H-pyrazol-4-yl)ethynyl)pyridin-2-yl)amino)pyrimidin-2-yl)-N, N-dimethyl-1H-pyrazole-1-sulfonamide] | 35.8 nM | 97.4 nM | 16.6 nM | 198 nM | 0.3 nM | 1.5 nM | 5.6 nM | 2.9 nM | 46.1 nM | > 10000 nM
9 | CC1(CO)CCN(c2cc(Nc3ccnc(-c4cnn(S(=O)(=O)C5CC5)c4)n3)ncc2C#CCCO)CC1 [Example 274, 4-(6-((2-(1-(Cyclopropylsulfonyl)-1H-pyrazol-4-yl)pyrimidin-4-yl)amino)-4-(4-(hydroxymethyl)-4-methylpiperidin-1-yl)pyridin-3-yl)but-3-yn-1-ol] | 0.4 nM | 0.6 nM | 1 nM | 10.8 nM | 0.1 nM | 0.2 nM | 0.1 nM | 0.2 nM | 4.4 nM | 1890 nM
10 | CC1(CO)CCN(c2cc(Nc3ccnc(-c4cnn(S(=O)(=O)C5CC5)c4)n3)ncc2C#CCC(F)(F)F)CC1 [Example 275, (1-(2-((2-(1-(Cyclopropylsulfonyl)-1H-pyrazol-4-yl)pyrimidin-4-yl)amino)-5-(4,4,4-trifluorobut-1-yn-1-yl)pyridin-4-yl)-4-methylpiperidin-4-yl)methanol] | 4.5 nM | 10.4 nM | 12.3 nM | 118 nM | 0.8 nM | 3.6 nM | 1 nM | 1.7 nM | 62.3 nM | > 10000 nM
11 | CC1(CO)CCN(c2cc(Nc3ccnc(-c4cnn(S(=O)(=O)C5CC5)c4)n3)ncc2C#CCCF)CC1 [Example 276, (1-(2-((2-(1-(Cyclopropylsulfonyl)-1H-pyrazol-4-yl)pyrimidin-4-yl)amino)-5-(4-fluorobut-1-yn-1-yl)pyridin-4-yl)-4-methylpiperidin-4-yl)methanol] | 0.8 nM | 1.3 nM | 1.5 nM | 16.5 nM | 0.1 nM | 0.5 nM | 0.3 nM | 0.7 nM | 7.5 nM | 5290 nM
12 | C=CC#Cc1cnc(Nc2ccnc(-c3cnn(S(=O)(=O)C4CC4)c3)n2)cc1N1CCC(C)(CO)CC1 [Example 277, (1-(5-(But-3-en-1-yn-1-yl)-2-((2-(1-(cyclopropylsulfonyl)-1H-pyrazol-4-yl)pyrimidin-4-yl)amino)pyridin-4-yl)-4-methylpiperidin-4-yl)methanol] | 1.4 nM | 3.3 nM | 2.5 nM | 33.7 nM | 0.3 nM | 1.8 nM | 0.6 nM | 0.8 nM | 11.4 nM | > 10000 nM
13 | CN(C)Cc1ccc(C#Cc2cnc(Nc3ccnc(-c4cnn(S(=O)(=O)C5CC5)c4)n3)cc2N2CCC(C)(CO)CC2)cn1 [Example 278, (1-(2-((2-(1-(Cyclopropylsulfonyl)-1H-pyrazol-4-yl)pyrimidin-4-yl)amino)-5-((6-((dimethylamino)methyl)pyridin-3-yl)ethynyl)pyridin-4-yl)-4-methylpiperidin-4-yl)methanol] | 0.2 nM | 0.6 nM | 0.5 nM | 0.5 nM | 0.1 nM | 0.3 nM | 0.3 nM | 0.6 nM | 0.7 nM | 108 nM
14 | CN1CCN(Cc2ccc(C#Cc3cnc(Nc4ccnc(-c5cnn(S(=O)(=O)C6CC6)c5)n4)cc3N3CCC(C)(CO)CC3)cn2)CC1 [Example 279, (1-(2-((2-(1-(Cyclopropylsulfonyl)-1H-pyrazol-4-yl)pyrimidin-4-yl)amino)-5-((6-((4-methylpiperazin-1-yl)methyl)pyridin-3-yl)ethynyl)pyridin-4-yl)-4-methylpiperidin-4-yl)methanol] | 0.2 nM | 0.6 nM | 0.6 nM | 0.6 nM | 0.1 nM | 0.5 nM | 0.6 nM | 0.7 nM | 0.6 nM | 111 nM
